Test results: patent US20120296403A1, “METHODS AND COMPOUNDS FOR MUSCLE GROWTH” (NOVARTIS AG, priority 2010, published 2012)
Where a SMILES comes first, the peptide text is derived from it. The star is where a group is joined. Cbz = O=C(OCc1ccccc1)*

Legend:
IRS1 [1] = assay: IRS1 degradation / protein stability in C2C12 myotubes (Western blotting); assay type: cell-based, mouse; details: for IRS1 degradation upon treatment: increasing concentration, along with protein synthesis inhibitor Emetin, dose-dependent
Description: Differentiated C2C12 myotubes are treated with increasing concentration of IGF1 or dexmethasome (DEX), a glucocorticoid that can lead to muscle atrophy, along with protein synthesis inhibitor Emetin (Eme). […] In C2C12 myotubes, IRS1 is rapidly degraded upon IGF1 treatment with a half-life of around 2 hours (FIGS. 4B and 4E).
Cells are washed twice with warm serum free DMEM and starved in serum free DMEM for 4 hours with an exchange of fresh medium in the middle. Then the signaling inhibitors are added to pretreat cells for 30 min before incubation with freshly prepared inhibitors with 10 nM IGF1 (the R3 form, Sigma, St. Louis, Mo.) or 10 μM Emetin (Sigma, St. Louis, Mo.) or 20 μM MG132 (Alexis Biochemicals, Carlsbad, Calif.) as specified for an additional 5 hours. Cells are rinsed two times with ice-cold PBS and harvested in ice-cold RIPA buffer with 10 μM MG132 and protease/phosphatase inhibitors tablets (Roche, Basel, Switzerland). Cell lysates are rotated at 4° C. for at least one hour, and spun for 10 min at 16,000×g in a micro centrifuge at 4° C. Protein concentrations of the supernatants are determined by BCA Protein Assay Kit (Pierce/Thermo Fisher Scientific, Rockford, Ill.). Equal amounts of proteins (10-20 μg) are loaded per lane on 4-12% Bis-Tris gels (Invitrogen, Carlsbad, Calif.) and transferred onto PVDF membranes (Millipore, Billerica, Mass.). Membranes are blocked in 10% (w/v) milk in TBST for 1 hour at room temperature, followed by incubation with primary antibody in TBST with 5% BSA at 4° C. for overnight. Secondary antibodies are incubated with membranes at room temperature for 1 hour. Immunoreactivity is detected by ECL and exposed to film or Kodak Image Station 4000R (Eastman Kodak Company, Rochester, N.Y.). Densitometry is analyzed using Kodak Molecular Imaging software, version 4.0.
Cells are washed twice with warm serum-free DMEM and starved in serum-free DMEM for 4 hours with an exchange of fresh medium in the middle. At time zero, 10 μM Emetin, or 100 μg/ml of cycloheximide, or 10 nM IGF1, or 20 μM MG132 are added to cells as specified. At the indicated time intervals, cells are rinsed twice with PBS and harvested in ice-cold RIPA buffer with 10 μM MG132 and protease/phosphatase inhibitors. Cell lysates are rotated at 4° C. for at least one hour, and spun for 10 min at 16,000×g in a micro centrifuge at 4° C. The supernatants are analyzed by western blotting.

Fbxo40 = Fbxo40 protein level after MG132 incubation (co-immunoprecipitation experiment, C2C12 myotubes); assay type: cell-based, mouse; details: 20 μM MG132
From the text: Ye et al. 2007 Gene 404: 53-60. We survey the FirstChoice Human Total RNA Panel by quantitative real-time PCR and find that Fbxo40 is highly expressed in heart and muscle (FIG. 3). Furthermore, its mRNA (FIG. 6B) and protein (FIG. 8A) is induced during differentiation of C2C12 cells, which coincides with the accelerated degradation of IRS1 in C2C12 myotubes. IRS1 and Rbx1 can be co-immunoprecipitated with antibody against Fbxo40 (FIG. 6C). […] We also use this immunoprecipitated Fbxo40-Rbx1 complex to ubiquitinate recombinant IRS1 in-vitro and find that IRS1 can be ubiquitinated in a time-dependent manner (FIG. 6D). In this experiment, we include six control reactions. The first four controls are the reactions carried out at 30° C. for 90 min with the omission of E1, or E2 (UbCH5c), or His6-Biotin-N-terminal Ubiquitin, or recombinant IRS1 respectively. The last two controls are full reactions carried out without immunoprecipitated Fbxo40 (with beads incubated with lysate without IgG or with nonspecific rabbit IgG). Poly-ubiquitinated IRS1 can be observed in full reactions after 60 min or 90 min at 30° C.
Alternatively, in the experiment of IRS1 and Rbx1 Co-Immunoprecipitation with Fbxo40, day 3 C2C12 myotubes are starved and treated with 10 nM IGF1 or 20 μM MG132 as described above. […]

IRS1 [2] = assay: In-vivo ubiquitination assay and immunoprecipitation of IRS1 in C2C12 myotubes; assay type: cell-based, mouse; details: C2C12 myotubes overexpressing his-myc tagged ubiquitin, 10 nM IGF1
Description: Since ubiquitinated proteins are rapidly degraded in cells, in order to detect ubiquitinated IRS1 protein in the experiment shown in FIG. 4C, C2C12 myotubes are infected with an adenovirus overexpressing his-myc tagged ubiquitin and incubated with IGF1 along with MG132 or an isopeptidase inhibitor G5. IRS1 is immunoprecipitated with the rabbit polyclonal anti-IRS1 antibody (lanes 6, 8, 10, 12) or non-specific IgG (lanes 5, 7, 9, 11) as control. Poly-ubiquitination is detected with monoclonal anti-myc antibody against the his-myc tagged ubiquitin and is found to be specifically immunoprecipitated with IRS1 (FIG. 4C, upper panel). […] Note that in the upper panel of FIG. 4C, G5 treatment also causes an upper shift of his-myc tagged ubiquitin in comparison to MG132 treatment alone (compare lane 10 to lane 8). In agreement with the induced degradation of IRS1 upon IGF1 treatment, poly-ubiquitinated IRS1 also increases with IGF1 treatment (FIG. 4D, upper panel) despite that the total amount of ubiquitinated proteins in cells even decreased a little (FIG. 4D, lower panel).
A His-myc-ubiquitin adenoviral expression constructs are sent to Welgen Inc. (Worcester, Mass.) for production and purification. […] Protein concentration in the supernatant is determined by BCA analysis. […] An aliquot (20 μg) of the lysate is analyzed by Western blotting along with 100% of the eluate.

[3] = target: purified recombinant IRS1 protein (Millipore)
Sequence of purified recombinant IRS1 protein (Millipore) (P35568 whole entry): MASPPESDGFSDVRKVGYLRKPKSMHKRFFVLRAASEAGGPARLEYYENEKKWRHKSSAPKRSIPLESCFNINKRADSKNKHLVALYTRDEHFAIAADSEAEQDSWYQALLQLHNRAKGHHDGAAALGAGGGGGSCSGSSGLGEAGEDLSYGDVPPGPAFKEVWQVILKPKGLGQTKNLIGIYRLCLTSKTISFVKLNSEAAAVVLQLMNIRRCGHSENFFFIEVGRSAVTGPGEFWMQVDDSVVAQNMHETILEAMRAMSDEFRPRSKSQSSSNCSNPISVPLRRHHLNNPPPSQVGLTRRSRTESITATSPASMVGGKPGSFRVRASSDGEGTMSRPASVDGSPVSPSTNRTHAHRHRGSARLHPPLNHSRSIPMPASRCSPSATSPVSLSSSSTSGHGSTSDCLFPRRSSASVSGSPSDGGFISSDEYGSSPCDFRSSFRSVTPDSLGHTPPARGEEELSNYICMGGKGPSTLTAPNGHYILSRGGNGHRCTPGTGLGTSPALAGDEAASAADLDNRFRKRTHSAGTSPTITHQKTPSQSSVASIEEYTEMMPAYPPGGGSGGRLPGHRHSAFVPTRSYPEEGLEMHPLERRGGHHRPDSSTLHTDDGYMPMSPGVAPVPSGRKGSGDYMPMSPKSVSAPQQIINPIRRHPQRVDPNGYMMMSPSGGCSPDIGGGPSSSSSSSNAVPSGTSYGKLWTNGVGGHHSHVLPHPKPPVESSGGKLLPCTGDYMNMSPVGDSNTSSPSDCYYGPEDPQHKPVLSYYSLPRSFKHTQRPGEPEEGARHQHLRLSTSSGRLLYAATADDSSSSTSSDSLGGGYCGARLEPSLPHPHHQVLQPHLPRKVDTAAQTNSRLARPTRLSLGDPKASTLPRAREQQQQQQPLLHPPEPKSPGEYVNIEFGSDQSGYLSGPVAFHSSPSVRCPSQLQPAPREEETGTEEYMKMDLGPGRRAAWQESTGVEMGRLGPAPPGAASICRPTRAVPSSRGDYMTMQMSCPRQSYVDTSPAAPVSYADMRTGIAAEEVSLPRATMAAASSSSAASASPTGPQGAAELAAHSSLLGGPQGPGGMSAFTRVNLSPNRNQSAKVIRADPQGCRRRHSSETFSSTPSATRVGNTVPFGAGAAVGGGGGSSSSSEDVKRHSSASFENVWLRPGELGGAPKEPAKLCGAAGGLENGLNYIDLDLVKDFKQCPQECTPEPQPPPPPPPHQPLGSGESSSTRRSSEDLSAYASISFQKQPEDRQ

CC(C)C[C@@H](C=O)NC(=O)[C@H](CC(C)C)NC(=O)[C@H](CC(C)C)NC(=O)OCc1ccccc1 [MG132, reference compound] (Cbz-Leu-Leu-Leu-aldehyde)
stabilization of IRS1 protein (IRS1 [1]; IGF1 treatment, 20 μM MG132): substantially stabilizes
Fbxo40 protein level after incubation with MG132 (Fbxo40): increases

insulin-like growth factor-1 (IGF1)
half-life of IRS1 upon IGF1 treatment (IRS1 [1]; 10 nM IGF1): around 2 hours
protein level of IRS1 in cells treated with IGF1 alone (IRS1 [1]; IGF1 alone (no Emetin), slower kinetics): decreases
IRS1 degradation upon treatment (IRS1 [1]): IRS1 is degraded
poly-ubiquitinated IRS1 (IRS1 [2]): increases

C[C@@H]1C[C@H]2[C@@H]3CCC4=CC(=O)C=C[C@]4(C)[C@@]3(F)[C@@H](O)C[C@]2(C)[C@@]1(O)C(=O)CO [DEX, dexmethasome, reference compound]
IRS1 degradation upon treatment (IRS1 [1]): not

B1: Fbxo40, endogenous in C2C12 myotubes (protein)
chain: MGRARKPPPALHRHCEGCFNRHCHVPVEPSVSCLVISCHLLCGATFHMCKESEHTLLCPLEQVPCLNSEYGCPLSMARHKLAKHLQVCPASVVCCSMEWIRWPNVDSETFLHENIMKETPSEECLDTALALQDQKVLFRSLKMVELFPETRDATEEEPDMNGDTSWEETGGAVGGVDARLAPNSCLPATSRQMMELSQEERDALAKTKEGMDLDKFGKWESMFSKEHAASVLTGSLGKSEDKNGDVAGKEQCSSNVRIGDAEGSAERRGPQESQKSQELPATMEMTGLAPWQDGVLERLKTAVDAKDYNMYLVHNGRMLIHFGQMPACTPKERDFVYGNLEAQEVKTVYTFKIPVSYCGKRARLGDAMLKCRPSEHKAVDTSDLGISVEDLPKSDLIKTTLQCALERELKGHVISESRSIDGLFMDLATQTYNFEPEQFSSETVLADLLGTAQPGGLHVELHSECVTRRHNKSSSAFTFTCNKFFRRDEFPLHFKNVHTDIQSSLDGWFQHRCPLAYLGCTFVQNHFRPPGQKAKVIYSQELKTFAIKPEVAPELSEKWKSDHLSGRDGKSLNSLTSLPLEVLQYIAGFLDSISLSQLSQVSVLMRNICATLLQERGMVLSQWKKKRYSHGGTSWKVHNQIWQFSSLFSKINSWEFNDVTSMSEHLKTCPFNIVERKTDPIRLTSMCQPQEKARESLVSTFRARPRGRHF
in-vitro ubiquitination of recombinant IRS1 (streptavidin-HRP blot of His6-Biotin-ubiquitin) [3]: IRS1 can be ubiquitinated in a time-dependent manner
